# Reference: patent publication US20250250230A1, “HETEROCYCLIC COMPOUND” (TAKEDA PHARMACEUTICAL COMPANY LIMITED, priority 2022, published 2025)
# Biological target: T1, human orexin type 2 receptor (Homo sapiens, UniProt O43614)
# T1 construct: expressed in transfected cells
# T1 sequence (O43614 1-444): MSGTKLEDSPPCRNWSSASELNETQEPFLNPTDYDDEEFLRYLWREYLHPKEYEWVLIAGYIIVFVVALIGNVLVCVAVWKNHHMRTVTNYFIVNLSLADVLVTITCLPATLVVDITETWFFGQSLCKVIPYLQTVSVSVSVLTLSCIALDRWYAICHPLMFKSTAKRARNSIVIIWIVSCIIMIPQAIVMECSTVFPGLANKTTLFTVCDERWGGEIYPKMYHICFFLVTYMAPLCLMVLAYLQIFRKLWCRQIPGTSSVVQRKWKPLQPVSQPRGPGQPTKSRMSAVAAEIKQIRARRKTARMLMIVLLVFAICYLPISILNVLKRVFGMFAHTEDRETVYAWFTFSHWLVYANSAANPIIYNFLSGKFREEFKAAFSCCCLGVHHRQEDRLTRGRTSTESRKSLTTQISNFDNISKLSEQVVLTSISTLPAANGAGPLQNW
# Test: Measurement of orexin type 2 receptor agonist activity (calcium fluorescence, Fluo-4 AM, FDSS)
# Type: cell-based
# Conditions: test compound 3 μM; CHO cells expressing human OX2 receptor; DMSO = 0%, orexin A (human) = 100%
# Procedure, shortened: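 CHO-K1 cells stably expressing human OX2R were loaded with Fluo-4 AM (30 min 37 °C, 30 min RT) in HEPES-buffered HBSS with 0.1% BSA and probenecid. Calcium fluorescence was followed on FDSS for 2 min after compound addition; activity normalised to DMSO (0%) and 10 nM orexin A (100%).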
row,Structure (SMILES),"OX2R agonist activity (3 μM, %)"
1,"CCS(=O)(=O)NC(C)[C@H]1CCN1C(=O)[C@@H]1C[C@H]1c1ccccc1-c1c(F)cccc1F (stereo partly drawn) [Example 361, N-[(1R)-1-{(2R)-1-[(1R,2R)-2-(2′,6′-difluoro[1,1′-biphenyl]-2-yl)cyclopropane-1-carbonyl]azetidin-2-yl}ethyl]ethanesulfonamide, or N-[(1S)-1-{(2R)-1-[(1R,2R)-2-(2′,6′-difluoro[1,1′-biphenyl]-2-yl)cyclopropane-1-carbonyl]azetidin-2-yl}ethyl]ethanesulfonamide]",90%
2,"CS(=O)(=O)N[C@@H]1CN(C(=O)[C@@H]2C[C@H]2c2ccccc2-c2c(F)cccc2F)CC[C@H]1O [Example 269, N-{(3R,4R)-1-[(1R,2R)-2-(2′,6′-difluoro[1,1′-biphenyl]-2-yl)cyclopropane-1-carbonyl]-4-hydroxypiperidin-3-yl}methanesulfonamide]",100%
3,"CS(=O)(=O)NCC1N(C(=O)[C@@H]2C[C@@]2(F)c2ccccc2-c2c(F)cccc2F)CC1(F)F (stereo partly drawn) [Example 409, N-({(2R)-1-[(1S,2S)-2-(2′,6′-difluoro[1,1′-biphenyl]-2-yl)-2-fluorocyclopropane-1-carbonyl]-3,3-difluoroazetidin-2-yl}methyl)methanesulfonamide, or N-({(2S)-1-[(1S,2S)-2-(2′,6′-difluoro[1,1′-biphenyl]-2-yl)-2-fluorocyclopropane-1-carbonyl]-3,3-difluoroazetidin-2-yl}methyl)methanesulfonamide]",100%
4,"O=C(C1CC1c1ccccc1-c1c(F)cccc1F)N1CCC1CNS(=O)(=O)C1CC1 (racemic) [Example 205, a mixture of rac-N-({(2R)-1-[(1R,2R)-2-(2′,6′-difluoro[1,1′-biphenyl]-2-yl)cyclopropane-1-carbonyl]azetidin-2-yl}methyl)cyclopropanesulfonamide and rac-N-({(2S)-1-[(1R,2R)-2-(2′,6′-difluoro[1,1′-biphenyl]-2-yl)cyclopropane-1-carbonyl]azetidin-2-yl}methyl)cyclopropanesulfonamide]",78%
5,"CS(=O)(=O)NC1CCCN(C(=O)C2CC2c2ccccc2-c2ccccc2Cl)CC1 (racemic) [Example 43, a mixture of rac-N-{(4R)-1-[(1R,2R)-2-(2′-chloro[1,1′-biphenyl]-2-yl)cyclopropane-1-carbonyl]azepan-4-yl}methanesulfonamide and rac-N-{(4S)-1-[(1R,2R)-2-(2′-chloro[1,1′-biphenyl]-2-yl)cyclopropane-1-carbonyl]azepan-4-yl}methanesulfonamide]",92%
6,"CC1(C)C(C(=O)N2CC[C@H](NS(C)(=O)=O)C2)C1c1ccccc1-c1c(F)cccc1F (mixture of isomers) [Example 287, a mixture of N-{(3S)-1-[(1R,2R)-2-(2′,6′-difluoro[1,1′-biphenyl]-2-yl)-2,2-dimethylcyclopropane-1-carbonyl]pyrrolidin-3-yl}methanesulfonamide and N-{(3S)-1-[(1S,3S)-3-(2′,6′-difluoro[1,1′-biphenyl]-2-yl)-2,2-dimethylcyclopropane-1-carbonyl]pyrrolidin-3-yl}methanesulfonamide]",96%
7,"CS(=O)(=O)NC[C@@H]1[C@H](F)CN1C(=O)[C@@H]1C[C@@]1(F)c1ccccc1-c1c(F)cccc1F [Example 390, N-({(2R,3R)-1-[(1S,2S)-2-(2′,6′-difluoro[1,1′-biphenyl]-2-yl)-2-fluorocyclopropane-1-carbonyl]-3-fluoroazetidin-2-yl}methyl)methanesulfonamide]",98%
8,"CS(=O)(=O)N[C@H]1CCCN(C(=O)C2CC2(F)c2ccccc2-c2c(F)cccc2F)CC1 (mixture of isomers) [Example 290, a mixture of N-{(4S)-1-[(1R,2R)-2-(2′,6′-difluoro[1,1′-biphenyl]-2-yl)-2-fluorocyclopropane-1-carbonyl]azepan-4-yl}methanesulfonamide and N-{(4S)-1-[(1S,2S)-2-(2′,6′-difluoro[1,1′-biphenyl]-2-yl)-2-fluorocyclopropane-1-carbonyl]azepan-4-yl}methanesulfonamide]",98%
9,"CS(=O)(=O)NC1CCN(C(=O)C2CC2c2c(F)cccc2-c2ccccc2Cl)C1 (racemic) [Example 126, a mixture of rac-N-{(3R)-1-[(1R,2R)-2-(2′-chloro-3-fluoro[1,1′-biphenyl]-2-yl)cyclopropane-1-carbonyl]pyrrolidin-3-yl}methanesulfonamide and rac-N-{(3S)-1-[(1R,2R)-2-(2′-chloro-3-fluoro[1,1′-biphenyl]-2-yl)cyclopropane-1-carbonyl]pyrrolidin-3-yl}methanesulfonamide]",89%
10,"CS(=O)(=O)NC1CCN(C(=O)C2CC2c2ccccc2-c2cccc(F)c2F)C1 (racemic) [Example 81, a mixture of rac-N-{(3R)-1-[(1R,2R)-2-(2′,3′-difluoro[1,1′-biphenyl]-2-yl)cyclopropane-1-carbonyl]pyrrolidin-3-yl}methanesulfonamide and rac-N-{(3S)-1-[(1R,2R)-2-(2′,3′-difluoro[1,1′-biphenyl]-2-yl)cyclopropane-1-carbonyl]pyrrolidin-3-yl}methanesulfonamide]",70%
11,"CS(=O)(=O)NC1(CF)CCN(C(=O)[C@@H]2C[C@H]2c2ccccc2-c2c(F)cccc2F)C1 (stereo partly drawn) [Example 342, N-[(3R)-1-[(1R,2R)-2-(2′,6′-difluoro[1,1′-biphenyl]-2-yl)cyclopropane-1-carbonyl]-3-(fluoromethyl)pyrrolidin-3-yl]methanesulfonamide, or N-[(3S)-1-[(1R,2R)-2-(2′,6′-difluoro[1,1′-biphenyl]-2-yl)cyclopropane-1-carbonyl]-3-(fluoromethyl)pyrrolidin-3-yl]methanesulfonamide]",101%
12,"COC[C@@H]1CN(C(=O)[C@@H]2C[C@@]2(F)c2ccccc2-c2c(F)cccc2F)C1CNS(C)(=O)=O (stereo in doubt) [Example 399, N-{[(2R,3R)-1-[(1S,2S)-2-(2′,6′-difluoro[1,1′-biphenyl]-2-yl)-2-fluorocyclopropane-1-carbonyl]-3-(methoxymethyl)azetidin-2-yl]methyl}methanesulfonamide]",95%
13,"CS(=O)(=O)NCC1CCN(C(=O)C2CC2c2ccccc2-c2c(F)cccc2F)C1 (racemic) [Example 40, a mixture of rac-N-({(3R)-1-[(1R,2R)-2-(2′,6′-difluoro[1,1′-biphenyl]-2-yl)cyclopropane-1-carbonyl]pyrrolidin-3-yl}methyl)methanesulfonamide and rac-N-({(3S)-1-[(1R,2R)-2-(2′,6′-difluoro[1,1′-biphenyl]-2-yl)cyclopropane-1-carbonyl]pyrrolidin-3-yl}methyl)methanesulfonamide]",77%
14,"COCC1(C(=O)N2CC[C@H]2CNS(C)(=O)=O)CC1c1ccccc1-c1c(F)cccc1F (stereo partly drawn) [Example 347, N-({(2S)-1-[(1R,2S)-2-(2′,6′-difluoro[1,1′-biphenyl]-2-yl)-1-(methoxymethyl)cyclopropane-1-carbonyl]azetidin-2-yl}methyl)methanesulfonamide, or N-({(2S)-1-[(1S,2R)-2-(2′,6′-difluoro[1,1′-biphenyl]-2-yl)-1-(methoxymethyl)cyclopropane-1-carbonyl]azetidin-2-yl}methyl)methanesulfonamide]",95%
15,"CC1C(NS(C)(=O)=O)CCN1C(=O)[C@@H]1C[C@H]1c1ccccc1-c1c(F)cccc1F (stereo partly drawn) [Example 297, N-{(2R,3R)-1-[(1R,2R)-2-(2′,6′-difluoro[1,1′-biphenyl]-2-yl)cyclopropane-1-carbonyl]-2-methylpyrrolidin-3-yl}methanesulfonamide, or N-{(2S,3S)-1-[(1R,2R)-2-(2′,6′-difluoro[1,1′-biphenyl]-2-yl)cyclopropane-1-carbonyl]-2-methylpyrrolidin-3-yl}methanesulfonamide]",101%
16,CCS(=O)(=O)NC1COCCN(C(=O)[C@@H]2C[C@H]2c2ccccc2-c2c(F)cccc2F)C1 (mixture of isomers) [Example 257],98%
17,"CS(=O)(=O)NC1CCN(C(=O)C2CC2c2sccc2-c2c(F)cccc2F)C1 (racemic) [Example 235, a mixture of rac-N-[(3R)-1-{(1R,2R)-2-[3-(2,6-difluorophenyl)thiophen-2-yl]cyclopropane-1-carbonyl}pyrrolidin-3-yl]methanesulfonamide and rac-N-[(3S)-1-{(1R,2R)-2-[3-(2,6-difluorophenyl)thiophen-2-yl]cyclopropane-1-carbonyl}pyrrolidin-3-yl]methanesulfonamide]",89%
18,"CS(=O)(=O)NC[C@@H]1CCN1C(=O)[C@@H]1C[C@H]1c1ccccc1-c1c(F)cc(F)cc1F [Example 403, N-({(2S)-1-[(1R,2R)-2-(2′,4′,6′-trifluoro[1,1′-biphenyl]-2-yl)cyclopropane-1-carbonyl]azetidin-2-yl}methyl)methanesulfonamide]",83%
